Where “and” joins values, the source holds several entries; their conditions need not be identical. Equal values may be shown once. Toxic doses and inconclusive results are not listed.
Test system: BDF1 mice, Lewis lung carcinoma iv, survival T/C
Assay: NCI In Vivo Anticancer Drug Screen. Data for tumor model Lewis Lung Carcinoma (intravenous) in B6D2F1 (BDF1) mice
Conditions: endpoint: median survival time, higher = longer survival
Method: The antitumor activity of compounds was measured in mice bearing transplantable tumors. Survival or tumor size were measured and the results are expressed as the measurement made in the treated group (T) divided by the measurement made in the vehicle treated control group (C). The tumor model used in this assay is Lewis Lung Carcinoma (intravenous) in B6D2F1 (BDF1) mice

[1] = dose: 6.25 mg/kg/injection, schedule: Q01DX009 (ip), vehicle: saline
[2] = dose: 12.5 mg/kg/injection, schedule: Q01DX009 (ip), vehicle: saline
[3] = dose: 3.12 mg/kg/injection, schedule: Q01DX009 (ip), vehicle: saline with Tween-80
[4] = dose: 6.25 mg/kg/injection, schedule: Q01DX009 (ip), vehicle: saline with Tween-80
[5] = dose: 12.5 mg/kg/injection, schedule: Q01DX009 (ip), vehicle: saline with Tween-80
[6] = dose: 25.0 mg/kg/injection, schedule: Q01DX009 (ip), vehicle: saline with Tween-80
[7] = dose: 50.0 mg/kg/injection, schedule: Q01DX009 (ip), vehicle: saline with Tween-80
[8] = dose: 100.0 mg/kg/injection, schedule: Q01DX009 (ip), vehicle: saline with Tween-80
[9] = dose: 200.0 mg/kg/injection, schedule: Q01DX009 (ip), vehicle: saline with Tween-80
[10] = dose: 12.5 mg/kg/injection, schedule: Q01DX009 (ip), vehicle: Klucel (hydroxypropylcellulose) (HPC)
[11] = dose: 25.0 mg/kg/injection, schedule: Q01DX009 (ip), vehicle: Klucel (hydroxypropylcellulose) (HPC)
[12] = dose: 100.0 mg/kg/injection, schedule: Q01DX009 (ip), vehicle: Klucel (hydroxypropylcellulose) (HPC)
[13] = dose: 25.0 mg/kg/injection, schedule: Q01DX009 (ip), vehicle: saline
[14] = dose: 50.0 mg/kg/injection, schedule: Q01DX009 (ip), vehicle: saline
[15] = dose: 100.0 mg/kg/injection, schedule: Q01DX009 (ip), vehicle: saline
[16] = dose: 200.0 mg/kg/injection, schedule: Q01DX009 (ip), vehicle: Klucel (hydroxypropylcellulose) (HPC)

With `O=c1c(O)c(-c2cc(O)c(O)c(O)c2)oc2cc(O)cc(O)c12` the T/C (dose: 6.25 mg/kg/injection, schedule: Q01DX009 (ip), vehicle: other) was 88 % of control, the T/C (dose: 12.5 mg/kg/injection, schedule: Q01DX009 (ip), vehicle: other) was 94 % of control and the T/C (dose: 25.0 mg/kg/injection, schedule: Q01DX009 (ip), vehicle: other) was 93 % of control. The T/C (dose: 50.0 mg/kg/injection, schedule: Q01DX009 (ip), vehicle: other) was 93 % of control, the T/C (dose: 100.0 mg/kg/injection, schedule: Q01DX009 (ip), vehicle: other) was 115 % of control and the T/C (dose: 200.0 mg/kg/injection, schedule: Q01DX009 (ip), vehicle: other) was 97 % of control.
In the case of `OCCOCCN1CCN(CCCN2c3ccccc3Sc3ccc(C(F)(F)F)cc32)CC1`, the T/C (dose: 1.56 mg/kg/injection, schedule: Q01DX009 (ip), vehicle: saline) is reported as 110 % of control, the T/C (dose: 3.12 mg/kg/injection, schedule: Q01DX009 (ip), vehicle: saline) is reported as 105 % of control and the T/C [1] is reported as 102 % of control. The T/C [2] was 123 % of control.
For `Nc1cc2c3c(cccc3c1)C(=O)N(CCN1CCCC1)C2=O`, the T/C [3] was 99 % of control, the T/C [4] was 103 % of control and the T/C [5] was 103 % of control. For the same molecule, the T/C [6] was 115 % of control, the T/C [7] was 113 % of control and the T/C [8] was 119 % of control.
With `O=P1(NCCCl)OCCC(OO)N1CCCl` (stereo not given) the T/C (dose: 69.0 mg/kg/injection, schedule: Q01DX001 (ip), vehicle: Klucel (hydroxypropylcellulose) (HPC)) was 150 % of control, the T/C (dose: 101.0 mg/kg/injection, schedule: Q01DX001 (ip), vehicle: Klucel (hydroxypropylcellulose) (HPC)) was 117 % of control and the T/C (dose: 230.0 mg/kg/injection, schedule: Q01DX001 (ip), vehicle: Klucel (hydroxypropylcellulose) (HPC)) was 160 % of control.
For `O=c1[nH]c(=O)n(C2CC(O)C(CO)O2)cc1I` (stereo not given), the T/C [8] was 99 % of control and the T/C [9] was 108 % of control.
In the case of `Nc1ccccc1N`, the T/C [10] is reported as 96 % of control, the T/C [11] is reported as 107 % of control and the T/C (dose: 50.0 mg/kg/injection, schedule: Q01DX009 (ip), vehicle: Klucel (hydroxypropylcellulose) (HPC)) is reported as 101 % of control. The T/C [12] was 91 % of control.
With `O=P1(NCCCl)OCCCN1CCCl` (stereo not given) the T/C [2] was 114 % of control, the T/C [13] was 112 % of control and the T/C [14] was 163 % of control. The T/C [15] was 305 % of control, the T/C (dose: 108.0 mg/kg/injection, schedule: Q01DX001 (ip), vehicle: water) was 112 % of control and the T/C (dose: 190.0 mg/kg/injection, schedule: Q01DX001 (ip), vehicle: saline) was 283 % of control. The T/C (dose: 289.0 mg/kg/injection, schedule: Q01DX001 (ip), vehicle: saline) was 283 % of control, the T/C (dose: 431.0 mg/kg/injection, schedule: Q01DX001 (ip), vehicle: saline) was 212 % of control and the T/C (dose: 500.0 mg/kg/injection, schedule: Q01DX001 (ip), vehicle: water) was 91 % of control.
In the case of `CCCCC(=O)OCC(=O)[C@]1(O)Cc2c(O)c3c(c(O)c2[C@@H](OC2CC(NC(=O)C(F)(F)F)C(O)C(C)O2)C1)C(=O)c1c(OC)cccc1C3=O` (stereo not given in full), the T/C (dose: 4.0 mg/kg/injection, schedule: Q01DX009 (ip), vehicle: distilled water + Tween-80) is reported as 100 % of control, the T/C (dose: 8.0 mg/kg/injection, schedule: Q01DX009 (ip), vehicle: distilled water + Tween-80) is reported as 102 % of control and the T/C (dose: 16.0 mg/kg/injection, schedule: Q01DX009 (ip), vehicle: distilled water + Tween-80) is reported as 121 % of control.
For `C(CSC1=NCCN1)CSC1=NCCN1`, the T/C [1] was 93 % of control, the T/C [2] was 100 % of control and the T/C [13] was 93 % of control. For the same molecule, the T/C [14] was 93 % of control, the T/C [15] was 102 % of control and the T/C (dose: 200.0 mg/kg/injection, schedule: Q01DX009 (ip), vehicle: saline) was 100 % of control.
For `C=C1C(=O)OCC2C(C(=O)O)=CC3C(C)C(C)=CC123` (stereo not given), the T/C (dose: 2.5 mg/kg/injection, schedule: Q01DX009 (ip), vehicle: Klucel (hydroxypropylcellulose) (HPC)) was 87 % of control, the T/C (dose: 5.0 mg/kg/injection, schedule: Q01DX009 (ip), vehicle: Klucel (hydroxypropylcellulose) (HPC)) was 92 % of control and the T/C (dose: 10.0 mg/kg/injection, schedule: Q01DX009 (ip), vehicle: Klucel (hydroxypropylcellulose) (HPC)) was 95 % of control. The T/C (dose: 40.0 mg/kg/injection, schedule: Q01DX009 (ip), vehicle: Klucel (hydroxypropylcellulose) (HPC)) was 91 % of control and the T/C (dose: 80.0 mg/kg/injection, schedule: Q01DX009 (ip), vehicle: Klucel (hydroxypropylcellulose) (HPC)) was 92 % of control.
With `COc1cc2cc(c1Cl)N(C)C(=O)C[C@H](OC(=O)[C@H](C)N(C)C(C)=O)[C@]1(C)O[C@H]1[C@H](C)[C@@H]1C[C@@](O)(NC(=O)O1)[C@H](OC)C=C/C=C(\C)C2` the T/C (dose: 54.0 micrograms/kg/injection, schedule: Q04DX003 (ip), vehicle: water) was 94 % of control, the T/C (dose: 90.0 micrograms/kg/injection, schedule: Q04DX003 (ip), vehicle: water) was 94 % of control and the T/C (dose: 150.0 micrograms/kg/injection, schedule: Q04DX003 (ip), vehicle: water) was 90 % of control.
In the case of `COC(=O)C(F)C(Br)C(=O)OC` (stereo not given), the T/C (dose: 3.13 mg/kg/injection, schedule: Q01DX009 (ip), vehicle: saline with Tween-80) is reported as 95 % of control, the T/C [4] is reported as 99 % of control and the T/C [5] is reported as 95 % of control. The T/C [6] was 100 % of control and the T/C [7] was 104 % of control.
For `Cc1cc(NCCCCCCCNc2cc(C)nc3cc(N)ccc23)c2ccc(N)cc2n1`, the T/C (dose: 0.78 mg/kg/injection, schedule: Q01DX009 (ip), vehicle: saline with Tween-80) was 100 % of control, the T/C (dose: 1.56 mg/kg/injection, schedule: Q01DX009 (ip), vehicle: saline with Tween-80) was 102 % of control and the T/C [3] was 102 % of control. For the same molecule, the T/C [4] was 110 % of control and the T/C [5] was 96 % of control.
For `O=[N+]([O-])c1ccc(-n2[nH]nnc2=S)cc1`, the T/C [5] was 92 % of control, the T/C [6] was 101 % of control and the T/C [7] was 92 % of control. The T/C [8] was 92 % of control and the T/C [9] was 93 % of control.
In the case of `CC(CNC(=O)CCOS(C)(=O)=O)NC(=O)CCOS(C)(=O)=O` (stereo not given), the T/C [15] is reported as 106 % of control.
In the case of `Cc1ncc([N+](=O)[O-])n1CCO`, the T/C (dose: 18.75 mg/kg/injection, schedule: Q01DX009 (ip), vehicle: Klucel (hydroxypropylcellulose) (HPC)) is reported as 93 % of control, the T/C (dose: 37.5 mg/kg/injection, schedule: Q01DX009 (ip), vehicle: Klucel (hydroxypropylcellulose) (HPC)) is reported as 100 % of control and the T/C (dose: 75.0 mg/kg/injection, schedule: Q01DX009 (ip), vehicle: Klucel (hydroxypropylcellulose) (HPC)) is reported as 95 % of control. The T/C (dose: 150.0 mg/kg/injection, schedule: Q01DX009 (ip), vehicle: Klucel (hydroxypropylcellulose) (HPC)) was 100 % of control, the T/C (dose: 300.0 mg/kg/injection, schedule: Q01DX009 (ip), vehicle: Klucel (hydroxypropylcellulose) (HPC)) was 91 % of control and the T/C (dose: 600.0 mg/kg/injection, schedule: Q01DX009 (ip), vehicle: Klucel (hydroxypropylcellulose) (HPC)) was 102 % of control.
In the case of `CC(=O)OCC1OC(n2ncc(=O)[nH]c2=O)C(OC(C)=O)C1OC(C)=O` (stereo not given), the T/C [12] is reported as 100 % of control, the T/C [16] is reported as 109 % of control and the T/C (dose: 400.0 mg/kg/injection, schedule: Q01DX009 (ip), vehicle: Klucel (hydroxypropylcellulose) (HPC)) is reported as 107 % of control.
With `CC1CN1CC(O)C(O)CN1CC1C` (stereo not given) the T/C (dose: 0.25 mg/kg/injection, schedule: Q01DX009 (ip), vehicle: saline) was 99 % of control, the T/C (dose: 0.5 mg/kg/injection, schedule: Q01DX009 (ip), vehicle: saline) was 111 % of control and 116 % of control and the T/C (dose: 1.0 mg/kg/injection, schedule: Q01DX009 (ip), vehicle: saline) was 121 % of control and 116 % of control. For the same molecule, the T/C (dose: 2.0 mg/kg/injection, schedule: Q01DX009 (ip), vehicle: saline) was 123 % of control.
For `CCCCCC[C@H]([C@H](C)O)n1cnc2c(N)ncnc21`, the T/C (dose: 6.25 mg/kg/injection, schedule: Q01DX009 (ip), vehicle: Klucel (hydroxypropylcellulose) (HPC)) was 99 % of control, the T/C [10] was 104 % of control and the T/C [11] was 103 % of control. The T/C [12] was 96 % of control and the T/C [16] was 99 % of control.
